Test results as given in ChEMBL document CHEMBL1201862, “PubChem BioAssay data set” (2004).
Calls of active or inactive are those of the source.

Key:
[1] = target: T1, Tyrosine-protein phosphatase non-receptor type 7 (Homo sapiens, UniProt P35236); assay type: functional
T1 sequence (P35236 whole entry): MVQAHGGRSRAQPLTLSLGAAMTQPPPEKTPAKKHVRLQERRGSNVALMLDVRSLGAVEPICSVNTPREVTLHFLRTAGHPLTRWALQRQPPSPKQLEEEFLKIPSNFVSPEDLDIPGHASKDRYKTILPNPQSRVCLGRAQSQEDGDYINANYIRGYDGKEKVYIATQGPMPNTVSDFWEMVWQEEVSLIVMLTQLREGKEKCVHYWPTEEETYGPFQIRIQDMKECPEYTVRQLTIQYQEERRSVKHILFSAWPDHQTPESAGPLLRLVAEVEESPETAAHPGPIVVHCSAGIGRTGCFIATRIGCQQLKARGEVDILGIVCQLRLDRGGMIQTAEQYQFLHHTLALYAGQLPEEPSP

[2] = target: T2, Tyrosine-protein phosphatase non-receptor type 22 (Homo sapiens, UniProt Q9Y2R2); assay type: functional
T2 sequence (Q9Y2R2 whole entry): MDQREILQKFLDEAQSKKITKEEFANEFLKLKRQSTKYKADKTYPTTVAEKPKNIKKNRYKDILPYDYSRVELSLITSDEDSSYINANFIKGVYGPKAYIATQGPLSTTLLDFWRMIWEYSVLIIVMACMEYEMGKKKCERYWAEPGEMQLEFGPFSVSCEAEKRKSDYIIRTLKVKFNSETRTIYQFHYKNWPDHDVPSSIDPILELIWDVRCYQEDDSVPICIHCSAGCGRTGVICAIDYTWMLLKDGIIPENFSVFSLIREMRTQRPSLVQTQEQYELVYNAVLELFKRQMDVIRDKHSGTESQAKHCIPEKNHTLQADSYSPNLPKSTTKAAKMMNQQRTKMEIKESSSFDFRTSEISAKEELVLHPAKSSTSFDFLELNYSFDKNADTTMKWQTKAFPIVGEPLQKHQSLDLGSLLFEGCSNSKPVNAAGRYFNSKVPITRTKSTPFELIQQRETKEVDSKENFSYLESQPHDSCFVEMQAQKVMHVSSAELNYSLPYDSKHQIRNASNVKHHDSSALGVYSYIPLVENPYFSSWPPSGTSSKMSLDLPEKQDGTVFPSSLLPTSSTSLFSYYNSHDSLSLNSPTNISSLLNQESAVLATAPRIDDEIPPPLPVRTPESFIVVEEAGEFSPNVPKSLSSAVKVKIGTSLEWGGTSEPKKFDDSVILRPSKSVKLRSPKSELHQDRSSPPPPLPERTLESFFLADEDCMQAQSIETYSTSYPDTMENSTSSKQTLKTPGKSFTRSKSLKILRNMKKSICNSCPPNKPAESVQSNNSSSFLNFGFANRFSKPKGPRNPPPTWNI

[3] = target: T2, Tyrosine-protein phosphatase non-receptor type 22; assay type: functional; remark: listed apart in the source
[4] = target: T3, Runt-related transcription factor 1/Core-binding factor subunit beta (Homo sapiens, UniProt Q01196+Q13951); experiment: inhibitors of RUNX1 Runt–CBFb-SMMHC binding, primary screen, biochemical, FRET, Cerulean-Runt, Venus-CBFb-SMMHC, uHTS (AID 1434); assay type: protein assay;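 also: partner is the CBFb-SMMHC leukemia fusion protein rather than wild-type CBFb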
T3 sequence (Q01196 whole entry, the tested form may be a part): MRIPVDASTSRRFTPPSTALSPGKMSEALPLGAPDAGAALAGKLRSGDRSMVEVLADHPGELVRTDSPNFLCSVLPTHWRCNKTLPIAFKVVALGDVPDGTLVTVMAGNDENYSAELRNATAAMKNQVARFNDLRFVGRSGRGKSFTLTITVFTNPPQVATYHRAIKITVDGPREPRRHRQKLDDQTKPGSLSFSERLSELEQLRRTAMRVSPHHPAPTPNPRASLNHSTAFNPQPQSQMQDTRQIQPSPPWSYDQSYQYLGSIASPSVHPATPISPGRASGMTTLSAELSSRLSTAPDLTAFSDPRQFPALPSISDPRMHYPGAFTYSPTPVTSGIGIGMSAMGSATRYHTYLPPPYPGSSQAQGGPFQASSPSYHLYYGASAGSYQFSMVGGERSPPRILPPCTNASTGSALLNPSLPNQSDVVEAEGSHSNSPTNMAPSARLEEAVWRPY
T3 sequence (Q13951 whole entry, the tested form may be a part): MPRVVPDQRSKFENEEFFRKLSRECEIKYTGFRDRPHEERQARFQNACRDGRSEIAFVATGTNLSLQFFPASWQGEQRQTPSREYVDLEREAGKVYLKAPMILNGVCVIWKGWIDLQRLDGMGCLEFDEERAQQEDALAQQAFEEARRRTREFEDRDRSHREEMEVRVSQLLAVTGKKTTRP

[5] = target: T4, Voltage-gated N-type calcium channel alpha-1B subunit/Amyloid beta A4 precursor protein-binding family A member 1 (Homo sapiens, UniProt Q00975+Q02410); assay type: protein assay
[6] = target: T3, Runt-related transcription factor 1/Core-binding factor subunit beta; experiment: inhibitors of RUNX1 Runt–CBFb-SMMHC binding, biochemical, TR-FRET (AID 1438); assay type: protein assay
[7] = target: T4, Voltage-gated N-type calcium channel alpha-1B subunit/Amyloid beta A4 precursor protein-binding family A member 1; assay type: protein assay; remark: listed apart in the source
[8] = target: T5, Mannose-6-phosphate isomerase (Homo sapiens, UniProt P34949); experiment: human PMI inhibitors, high substrate, primary screen, biochemical, fluorescence intensity, high mannose 6-phosphate (AID 1220)
T5 sequence (P34949 whole entry): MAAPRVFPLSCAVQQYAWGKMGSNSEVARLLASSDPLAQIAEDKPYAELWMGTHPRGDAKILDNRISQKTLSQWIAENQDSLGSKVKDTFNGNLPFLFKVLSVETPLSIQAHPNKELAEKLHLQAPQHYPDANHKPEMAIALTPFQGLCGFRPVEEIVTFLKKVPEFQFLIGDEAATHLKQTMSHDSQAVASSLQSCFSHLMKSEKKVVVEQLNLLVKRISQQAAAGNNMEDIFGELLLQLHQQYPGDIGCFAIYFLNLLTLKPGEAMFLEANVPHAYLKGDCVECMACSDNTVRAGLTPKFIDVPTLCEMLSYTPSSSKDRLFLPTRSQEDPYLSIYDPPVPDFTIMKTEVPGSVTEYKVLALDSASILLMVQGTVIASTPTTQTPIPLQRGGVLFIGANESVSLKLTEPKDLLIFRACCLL

[9] = target: T5, Mannose-6-phosphate isomerase; experiment: PMI enzyme inhibitors, confirmation, biochemical, fluorescence intensity (AID 1535)
[10] = target: DNA dC->dU-editing enzyme APOBEC-3A (Homo sapiens, UniProt P31941); experiment: APOBEC3A DNA deaminase inhibitors, dose response, biochemical (AID 504722); assay type: functional
Chain of DNA dC->dU-editing enzyme APOBEC-3A (P31941 whole entry): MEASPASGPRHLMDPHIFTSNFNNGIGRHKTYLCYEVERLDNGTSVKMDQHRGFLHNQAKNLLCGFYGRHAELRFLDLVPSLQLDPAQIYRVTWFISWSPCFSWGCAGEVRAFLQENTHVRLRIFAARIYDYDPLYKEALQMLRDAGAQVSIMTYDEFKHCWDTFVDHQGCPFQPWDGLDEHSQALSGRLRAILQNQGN

[11] = target: Glucose-6-phosphate 1-dehydrogenase (Homo sapiens, UniProt P11413); experiment: human G6PD enzyme inhibitors, dose response, selectivity assay for P. falciparum G6PD inhibitor project, biochemical, fluorescence (AID 504792); assay type: functional
[12] = target: T6, Phosphomannomutase 2 (Homo sapiens, UniProt O15305); experiment: Counter screen SAR assay for PMM2 inhibitors via a fluorescence intensity assay. [Related pubchem assays (depositor defined):AID1545, AID1574]
T6 sequence (O15305 whole entry): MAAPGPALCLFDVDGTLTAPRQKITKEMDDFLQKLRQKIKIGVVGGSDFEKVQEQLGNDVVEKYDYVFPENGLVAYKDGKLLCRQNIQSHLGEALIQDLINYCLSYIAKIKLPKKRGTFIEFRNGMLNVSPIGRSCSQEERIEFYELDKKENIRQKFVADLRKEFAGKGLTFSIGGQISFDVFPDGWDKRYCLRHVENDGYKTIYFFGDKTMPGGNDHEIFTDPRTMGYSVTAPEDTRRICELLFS

[13] = target: DNA dC->dU-editing enzyme APOBEC-3G (Homo sapiens, UniProt Q9HC16); experiment: Dose Response confirmation of small molecule APOBEC3G DNA Deaminase Inhibitors via a fluorescence-based single-stranded DNA deaminase assay. [Related pubchem assays (depositor defined):AID493012, AID493028]; assay type: functional
Chain of DNA dC->dU-editing enzyme APOBEC-3G (Q9HC16 whole entry): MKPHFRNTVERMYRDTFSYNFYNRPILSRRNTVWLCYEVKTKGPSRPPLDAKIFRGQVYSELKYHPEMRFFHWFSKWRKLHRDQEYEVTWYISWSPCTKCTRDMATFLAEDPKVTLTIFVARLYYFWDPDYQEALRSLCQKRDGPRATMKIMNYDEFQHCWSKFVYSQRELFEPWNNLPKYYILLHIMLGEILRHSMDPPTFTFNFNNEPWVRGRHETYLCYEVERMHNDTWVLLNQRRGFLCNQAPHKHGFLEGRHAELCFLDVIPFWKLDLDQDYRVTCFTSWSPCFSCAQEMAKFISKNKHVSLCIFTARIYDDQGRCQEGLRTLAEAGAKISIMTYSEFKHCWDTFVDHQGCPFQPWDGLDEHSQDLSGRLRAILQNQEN

[14] = target: T7, G-protein coupled receptor 55 (Homo sapiens, UniProt Q9Y2T6); experiment: GPR55 antagonists blocking LPI-driven arrestin recruitment, primary screen, imaging, U2OS, beta-arrestin-GFP, LPI agonist (AID 2013); assay type: functional;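 also: antagonist potency measured as reduced agonist-driven arrestin aggregation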
T7 sequence (Q9Y2T6 whole entry): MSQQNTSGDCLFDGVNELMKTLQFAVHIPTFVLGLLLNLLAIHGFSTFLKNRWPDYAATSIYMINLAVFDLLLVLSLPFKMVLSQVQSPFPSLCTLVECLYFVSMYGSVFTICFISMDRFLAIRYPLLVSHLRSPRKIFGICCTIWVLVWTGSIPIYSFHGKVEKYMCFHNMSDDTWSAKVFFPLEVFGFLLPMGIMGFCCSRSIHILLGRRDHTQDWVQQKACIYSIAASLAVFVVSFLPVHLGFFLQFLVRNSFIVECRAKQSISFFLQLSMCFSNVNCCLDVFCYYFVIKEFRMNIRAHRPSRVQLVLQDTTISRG

[15] = target: T8, Cannabinoid receptor 1 (Homo sapiens, UniProt P21554); experiment: SAR analysis of antagonists of the Cannabinoid Receptor 1 using an Image-Based Assay - Set 2. [Related pubchem assays (depositor defined):AID2013, AID2026]; assay type: functional
T8 sequence (P21554 whole entry): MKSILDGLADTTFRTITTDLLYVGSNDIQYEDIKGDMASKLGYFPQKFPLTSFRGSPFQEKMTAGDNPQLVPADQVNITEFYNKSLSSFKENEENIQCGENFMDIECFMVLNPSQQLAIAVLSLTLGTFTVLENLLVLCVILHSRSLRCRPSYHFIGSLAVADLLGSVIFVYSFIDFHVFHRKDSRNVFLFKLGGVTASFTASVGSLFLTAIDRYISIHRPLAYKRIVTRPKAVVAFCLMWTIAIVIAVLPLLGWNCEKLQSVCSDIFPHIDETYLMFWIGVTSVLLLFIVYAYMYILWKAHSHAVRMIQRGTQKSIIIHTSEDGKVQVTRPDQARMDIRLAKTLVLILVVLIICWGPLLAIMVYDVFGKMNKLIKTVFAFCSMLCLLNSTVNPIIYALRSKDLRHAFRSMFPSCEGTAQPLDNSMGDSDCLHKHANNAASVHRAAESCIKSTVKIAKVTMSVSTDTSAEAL

[16] = target: T9, G-protein coupled receptor 35 (Homo sapiens, UniProt Q9HC97); experiment: SAR analysis of Agonists of the GPR35 Receptor using an Image-Based Assay - Set 2. [Related pubchem assays (depositor defined):AID2013, AID2026]; assay type: functional
T9 sequence (Q9HC97 whole entry): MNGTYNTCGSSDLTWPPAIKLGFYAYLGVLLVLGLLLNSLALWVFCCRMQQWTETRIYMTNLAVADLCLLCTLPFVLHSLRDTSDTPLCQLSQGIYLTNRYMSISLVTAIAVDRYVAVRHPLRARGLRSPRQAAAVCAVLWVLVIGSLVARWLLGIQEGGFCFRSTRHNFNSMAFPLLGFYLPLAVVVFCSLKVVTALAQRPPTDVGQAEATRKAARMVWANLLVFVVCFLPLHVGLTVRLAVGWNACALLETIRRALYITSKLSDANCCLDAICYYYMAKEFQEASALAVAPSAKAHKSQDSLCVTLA

[17] = target: T10, Cannabinoid receptor 2 (Homo sapiens, UniProt P34972); experiment: SAR analysis of antagonists of the Cannabinoid Receptor 2 using an Image-Based Assay. [Related pubchem assays (depositor defined):AID2013, AID2026]; assay type: functional
T10 sequence (P34972 whole entry): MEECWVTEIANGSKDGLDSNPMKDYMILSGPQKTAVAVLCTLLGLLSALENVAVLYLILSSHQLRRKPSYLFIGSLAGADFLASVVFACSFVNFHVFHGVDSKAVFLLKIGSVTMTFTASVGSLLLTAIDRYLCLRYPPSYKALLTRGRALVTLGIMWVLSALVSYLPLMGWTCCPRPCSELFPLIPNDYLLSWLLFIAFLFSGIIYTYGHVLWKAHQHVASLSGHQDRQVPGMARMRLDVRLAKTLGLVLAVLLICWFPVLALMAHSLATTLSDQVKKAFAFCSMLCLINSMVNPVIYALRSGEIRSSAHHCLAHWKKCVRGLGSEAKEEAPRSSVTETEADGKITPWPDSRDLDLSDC

[18] = target: T8, Cannabinoid receptor 1; experiment: SAR analysis of agonists of the Cannabinoid Receptor 1 using an Image-Based Assay - Set 2. [Related pubchem assays (depositor defined):AID2013, AID2026]; assay type: functional
[19] = target: T9, G-protein coupled receptor 35; experiment: SAR analysis of Antagonists of the GPR35 Receptor using an Image-Based Assay - Set 3. [Related pubchem assays (depositor defined):AID2013, AID2026]; assay type: functional
[20] = target: T7, G-protein coupled receptor 55; experiment: GPR55 antagonist potency of analogs, SAR follow-up, imaging, U2OS, beta-arrestin-GFP, LPI agonist, set 2 (AID 2820); assay type: functional
[21] = target: T10, Cannabinoid receptor 2; experiment: SAR analysis of agonists of the Cannabinoid Receptor 2 using an Image-Based Assay. [Related pubchem assays (depositor defined):AID2013, AID2026]; assay type: functional
[22] = A small molecule screen for inhibitors of the PhoP region in Salmonella typhi (4) using purified and synthesized compounds. [Related pubchem assays (depositor defined):AID1850, AID1864, AID1985, AID2252, AID2384, AID2612, AID2811, AID434995]; assay type: functional
[23] = target: Eukaryotic translation initiation factor 4H (Homo sapiens, UniProt Q15056); experiment: human eIF4H binding inhibitors, primary screen, translation initiation inhibitor project, biochemical, uHTS, fluorescence polarization (AID 2012)
[24] = target: T11, SUMO-activating enzyme (Homo sapiens, UniProt Q9UBT2); experiment: SUMOylation inhibitor hit validation, confirmation, SUMOylation inhibitor project, biochemical, AlphaScreen (AID 2018); assay type: functional
T11 sequence (Q9UBE0 whole entry): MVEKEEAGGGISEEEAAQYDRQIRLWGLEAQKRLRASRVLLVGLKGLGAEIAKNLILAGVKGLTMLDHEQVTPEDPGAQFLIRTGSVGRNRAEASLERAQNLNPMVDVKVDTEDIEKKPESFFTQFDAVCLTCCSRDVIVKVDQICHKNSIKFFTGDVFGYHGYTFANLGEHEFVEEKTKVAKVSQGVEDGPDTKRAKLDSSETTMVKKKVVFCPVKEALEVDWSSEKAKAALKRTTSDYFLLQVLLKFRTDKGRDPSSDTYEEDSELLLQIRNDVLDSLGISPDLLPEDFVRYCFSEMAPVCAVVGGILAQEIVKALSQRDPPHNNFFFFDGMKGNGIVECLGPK
T11 sequence (Q9UBT2 whole entry): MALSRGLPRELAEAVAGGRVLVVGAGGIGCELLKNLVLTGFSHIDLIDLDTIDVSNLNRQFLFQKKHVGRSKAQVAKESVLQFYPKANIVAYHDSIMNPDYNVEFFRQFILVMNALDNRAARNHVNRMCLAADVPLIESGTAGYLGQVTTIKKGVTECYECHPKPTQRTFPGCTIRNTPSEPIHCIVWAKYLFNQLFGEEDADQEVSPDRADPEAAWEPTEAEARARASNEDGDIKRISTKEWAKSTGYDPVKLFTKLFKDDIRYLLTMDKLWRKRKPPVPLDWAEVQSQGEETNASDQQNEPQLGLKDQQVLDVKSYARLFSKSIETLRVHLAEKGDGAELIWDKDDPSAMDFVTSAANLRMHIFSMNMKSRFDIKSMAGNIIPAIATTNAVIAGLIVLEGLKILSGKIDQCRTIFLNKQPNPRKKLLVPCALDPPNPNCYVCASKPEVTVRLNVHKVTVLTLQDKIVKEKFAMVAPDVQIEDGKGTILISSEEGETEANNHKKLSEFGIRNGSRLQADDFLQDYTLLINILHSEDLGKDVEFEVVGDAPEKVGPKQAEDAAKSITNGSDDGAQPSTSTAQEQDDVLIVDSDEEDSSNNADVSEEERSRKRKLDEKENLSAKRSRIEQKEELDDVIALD

[25] = target: T11, SUMO-activating enzyme; experiment: inhibitors of in vitro SUMOylation cascade, primary screen, biochemical, HTRF, uHTS (AID 2006); assay type: protein-complex assay
[26] = target: Polyadenylate-binding protein 1 (Homo sapiens, UniProt P11940); experiment: PABP poly(A) RNA binding inhibitors, primary screen, biochemical, fluorescence polarization, uHTS (AID 2014)
[27] = target: Intestinal-type alkaline phosphatase (Homo sapiens, UniProt P09923); experiment: activation of human intestinal alkaline phosphatase – biochemical, dose response (AID 488873); assay type: functional
Chain of Intestinal-type alkaline phosphatase (Homo sapiens, UniProt P09923) (P09923 whole entry): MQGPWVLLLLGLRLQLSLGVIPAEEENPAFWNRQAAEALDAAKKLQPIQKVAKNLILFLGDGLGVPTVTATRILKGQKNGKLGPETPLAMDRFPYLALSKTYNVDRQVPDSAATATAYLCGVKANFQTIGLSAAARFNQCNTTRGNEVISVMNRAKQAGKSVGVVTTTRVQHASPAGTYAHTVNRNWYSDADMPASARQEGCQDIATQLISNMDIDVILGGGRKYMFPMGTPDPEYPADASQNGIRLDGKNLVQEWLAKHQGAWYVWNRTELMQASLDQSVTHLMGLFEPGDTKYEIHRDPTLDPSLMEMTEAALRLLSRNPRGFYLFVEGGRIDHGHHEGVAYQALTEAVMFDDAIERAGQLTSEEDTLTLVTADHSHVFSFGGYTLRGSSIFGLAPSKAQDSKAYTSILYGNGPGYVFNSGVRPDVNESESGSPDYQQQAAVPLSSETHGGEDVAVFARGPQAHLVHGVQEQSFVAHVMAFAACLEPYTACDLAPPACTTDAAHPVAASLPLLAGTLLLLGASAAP

[28] = target: Intestinal-type alkaline phosphatase (Mus musculus, UniProt P24822); experiment: mouse intestinal alkaline phosphatase activators, dose response, biochemical, luminescence, uHTS hits (AID 488783); assay type: functional
[29] = target: T12, Alkaline phosphatase, tissue-nonspecific isozyme (Homo sapiens, UniProt P05186); experiment: TNAP enzyme activators, dose response, selectivity assay for mouse IAP activator project, biochemical, TNAP isozyme, mouse IAP uHTS hits (AID 488880); assay type: functional
T12 sequence (P05186 whole entry): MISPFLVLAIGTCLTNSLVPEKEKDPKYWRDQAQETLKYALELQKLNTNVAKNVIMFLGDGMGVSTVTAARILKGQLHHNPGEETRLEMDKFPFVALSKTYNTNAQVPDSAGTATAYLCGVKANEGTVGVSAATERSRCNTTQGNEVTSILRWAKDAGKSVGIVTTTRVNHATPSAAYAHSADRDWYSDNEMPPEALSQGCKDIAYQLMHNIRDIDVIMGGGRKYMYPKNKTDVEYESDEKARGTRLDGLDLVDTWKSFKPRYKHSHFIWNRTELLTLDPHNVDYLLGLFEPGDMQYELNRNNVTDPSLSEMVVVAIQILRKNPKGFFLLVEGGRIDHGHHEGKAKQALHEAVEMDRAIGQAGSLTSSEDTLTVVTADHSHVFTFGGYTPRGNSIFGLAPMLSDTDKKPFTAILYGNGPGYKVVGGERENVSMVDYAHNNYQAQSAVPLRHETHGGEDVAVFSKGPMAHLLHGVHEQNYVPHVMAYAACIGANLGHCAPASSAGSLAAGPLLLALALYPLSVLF

With Cc1cccc(-n2cc(CN3CCN(C(=O)c4nc[nH]n4)CC3)c(-c3cccc(F)c3)n2)c1 the IC50 [1] was > 79.4 µM (inactive), the IC50 [2] was > 79.4 µM (inactive) and the IC50 [3] was > 79.4 µM (inactive).

With CCOC(=O)Cc1csc(-n2sc3ccccc3c2=O)n1 the IC50 [4] was 5.4 µM (active), the IC50 [5] was 1.15 µM (active) and the IC50 [6] was 8.58 µM (active). The IC50 [7] was > 50 µM (inactive), the IC50 [8] was 23.5 µM (active) and the IC50 [9] was > 50 µM (inactive). The IC50 [10] was > 100 µM (inactive), the IC50 [11] was 21.6 µM (inactive) and the IC50 [12] was > 100 µM (inactive). For the same compound, the IC50 [13] was 12.6 µM (active).

With CCCCC1(Cc2cccc([N+](=O)[O-])c2)C(=O)N(c2ccccc2)N(c2ccccc2)C1=O the IC50 [14] was 0.552 µM (active), the IC50 [15] was 11 µM (inactive) and the EC50 [16] was > 32 µM (inactive). The IC50 [17] was > 32 µM (inactive), the EC50 [18] was > 32 µM (inactive) and the IC50 [19] was > 32 µM (inactive). For the same compound, the IC50 [20] was 0.577 µM (active) and the EC50 [21] was > 32 µM (inactive).

With COc1cccc(CNC(=S)Nc2ccncc2)c1 the IC50 [22] was 164 µM (active).

In the case of Cc1ccc(C(=O)Nc2nnc(CC(=O)N/N=C/c3ccc(O)c(O)c3)s2)cc1, the IC50 [23] was 4.81 µM (active), the IC50 [24] was 1.71 µM (active) and the IC50 [25] was 37.1 µM (active). The IC50 [26] was 46 µM (active), the EC50 [27] was 66 µM (active) and the EC50 [28] was 37.2 µM (active). For the same compound, the EC50 [29] was 47.8 µM (active).
